Results reported in publication PMC11672294, “The Antipsychotic Drug Aripiprazole Suppresses Colorectal Cancer by Targeting LAMP2a to Induce RNH1/miR‐99a/mTOR‐Mediated Autophagy and Apoptosis” (Advanced Science, 2024).
Structures can show the parent of a compound that is named as a salt.

system: HT29; settings: 72 h, relative to DMSO, 10 µM, Relative cell viability (%)
From the text: To investigate the key signaling pathways and biological processes involved in CRC progression, we analyzed the National Center for Biotechnology Information Gene Expression Omnibus (GEO) dataset GSE115313, which included 42 CRC and paired normal tissues (Figure 1A). […] Next, we performed an Annexin V‐fluorescein isothiocyanate (FITC)/propidium iodide (PI) staining assay to determine the effect of aripiprazole on apoptosis in CRC cells. […] A) Principal component analysis of GEO dataset (GSE115313), which includes 42 CRC and paired normal tissues. B) Gene Ontology pathway analysis of the DEPs between CRC and paired normal tissues. […] D) Schematic diagram for identifying anticancer drugs amongst an US Food and Drug Administration‐approved small‐molecule library (616 compounds) using WST‐1 assay. E) HT29 cells were treated with the 616 drugs (10 µM) individually or with dimethyl sulfoxide for 72 h, followed by WST‐1 assay. […] J) Mice bearing HT29‐derived tumor xenografts were intragastrically administered with aripiprazole (10 or 20 mg kg^−1) once every 2 d, n = 6 mice/group. […] Bars, SD; ^* p < 0.05; ^** p < 0.01; ^*** p < 0.001; ns, no significant difference. The WST‐1 Cell Proliferation and Cytotoxicity Assay Kit (Beyotime Biotechnology, Shanghai, China) was used to measure cell viability, as described previously.^[ [10] ^] CRC cells were seeded into 96‐well plates and treated with different drug concentrations. Following that, WST‐1 was added to the plate and incubated with the cells for 2 h, at 37 °C. Absorbance at the wavelength of 450 nm was measured using an automated microplate spectrophotometer (BioTek Instruments, Winooski, VT, USA).

In the case of `COc1ccc2nc([S@@+]([O-])Cc3ncc(C)c(OC)c3C)[nH]c2c1` [Esomeprazole Magnesium], the “Relative cell viability (%)” value is reported as 80.51%.

same assay, conditions: 72 h, relative to DMSO; 10 µM

Point of comparison: `C[C@H]1CNCCCN1S(=O)(=O)c1cccc2cncc(F)c12` [Ripasudil (K-115)], “Relative cell viability (%)” value 118.8%. Against it:
- CC(=O)Oc1cc2c(s1)CCN(C(C(=O)C1CC1)c1ccccc1F)C2 (centres unmarked) [Prasugrel] — lower, 68.07%
- O=C(NC(Cc1cc(=O)[nH]c2ccccc12)C(=O)O)c1ccc(Cl)cc1 (centres unmarked) [Rebamipide] — higher, 125.4%
- CC(C)c1nc(N(C)S(C)(=O)=O)nc(-c2ccc(F)cc2)c1/C=C/[C@@H](O)C[C@@H](O)CC(=O)O [Rosuvastatin Calcium] — higher, 120.2%
- CCOC(=O)[C@@H](N)Cc1ccc(-c2cc(O[C@H](c3ccc(Cl)cc3-n3ccc(C)n3)C(F)(F)F)nc(N)n2)cc1 [Telotristat Etiprate (LX 1606 Hippurate)] — lower, 86.05%
- CC/C(=C(/CC)c1ccc(O)cc1)c1ccc(O)cc1 [Diethylstilbestrol] — lower, 69.07%
- NC(=O)NO [Hydroxyurea] — lower, 70.34%
- CN1CCC(COc2cnc(-c3cccc(Cn4nc(-c5cccc(C#N)c5)ccc4=O)c3)nc2)CC1 [Tepotinib (EMD 1214063)] — lower, 11.11%
- Cc1c(C(=O)NN2CCCCC2)nn(-c2ccc(Cl)cc2Cl)c1-c1ccc(Cl)cc1 [Rimonabant] — lower, 79.61%
- Cc1cccc(C)c1OCC(=O)N[C@@H](Cc1ccccc1)[C@@H](O)C[C@H](Cc1ccccc1)NC(=O)[C@H](C(C)C)N1CCCNC1=O [Lopinavir] — lower, 55.61%
- Cn1c(=O)cc(N2CCC[C@@H](N)C2)n(Cc2ccccc2C#N)c1=O [Alogliptin] — lower, 101.5%
- CCC1=C(C)CN(C(=O)NCCc2ccc(S(=O)(=O)NC(=O)N[C@H]3CC[C@H](C)CC3)cc2)C1=O [Glimepiride] — lower, 64.95%
- C[C@H](CCC(=O)O)[C@H]1CC[C@H]2[C@@H]3CC[C@@H]4C[C@H](O)CC[C@]4(C)[C@H]3C[C@H](O)[C@]12C [Deoxycholic acid] — lower, 90.6%
- CCN(CCCc1ccccc1)CCCc1ccccc1 [Alverine Citrate] — lower, 78.16%
- O=c1[nH]c(=O)n([C@H]2C[C@H](O)[C@@H](CO)O2)cc1I [Idoxuridine] — lower, 86.86%
- CO[C@H]1/C=C/O[C@@]2(C)Oc3c(C)c(O)c4c(c3C2=O)C2=NC3(CCN(CC(C)C)CC3)NC2=C(NC(=O)/C(C)=C\C=C\[C@H](C)[C@H](O)[C@@H](C)[C@@H](O)[C@@H](C)[C@H](OC(C)=O)[C@@H]1C)C4=O [Rifabutin] — lower, 70.34%
- O=C(NS(=O)(=O)c1ccc(Br)s1)c1ccc(Cl)cc1Cl [Tasisulam] — lower, 94.44%
- CC(=O)OCC(=O)NCCCOc1cccc(CN2CCCCC2)c1 [Roxatidine Acetate HCl] — lower, 111%
- COc1cc2nc(N3CCN(C(=O)C4COc5ccccc5O4)CC3)nc(N)c2cc1OC (centres unmarked) [Doxazosin Mesylate] — lower, 63.4%
- COc1cc2c(cc1OC)[C@H]1CC(=O)[C@H](CC(C)C)CN1CC2 (racemic) [Tetrabenazine (Xenazine)] — lower, 97.03%
- COC(=O)N[C@H](C(=O)N1CC2(CC2)C[C@H]1c1ncc(-c2ccc3c(c2)C(F)(F)c2cc(-c4ccc5nc([C@@H]6[C@H]7CC[C@H](C7)N6C(=O)[C@@H](NC(=O)OC)C(C)C)[nH]c5c4)ccc2-3)[nH]1)C(C)C [Ledipasvir (GS5885)] — lower, 80.34%
- C[C@H]1O[C@H](O[C@H]2[C@H](O)[C@@H](O)[C@@H](O[C@H]3[C@H](O)[C@@H](O)C(O)O[C@@H]3CO)O[C@@H]2CO)[C@H](O)[C@@H](O)[C@@H]1N[C@H]1C=C(CO)[C@@H](O)[C@H](O)[C@H]1O (some centres unmarked) [Acarbose] — lower, 103.9%
- COC(=O)C1=CCCN(C)C1 [Arecoline] — lower, 59.22%
- Cc1nnc(NS(=O)(=O)c2ccc(N)cc2)s1 [Sulfamethizole] — higher, 202.3%
- OCCN(CCO)c1nc(N2CCCCC2)c2nc(N(CCO)CCO)nc(N3CCCCC3)c2n1 [Dipyridamole] — lower, 52.54%
- NC(=O)Cc1cccc(C(=O)c2ccccc2)c1N [Nepafenac] — lower, 77.41%
- CCN1CCC[C@H]1CNC(=O)c1cc(S(N)(=O)=O)ccc1OC [Levosulpiride] — lower, 114.3%
- C=CN1CCCC1=O [Povidone iodine] — lower, 91.88%
- CCCN(CCC)C(=O)C1=Cc2ccc(-c3ccc(C(=O)N4CCCC4)cc3)cc2N=C(N)C1 [Motolimod (VTX-2337)] — lower, 31.62%
- CC[C@H]1[C@@H](O)[C@@H]2[C@H](CC[C@]3(C)[C@@H]([C@H](C)CCC(=O)O)CC[C@@H]23)[C@@]2(C)CC[C@@H](O)C[C@@H]12 [Obeticholic Acid] — lower, 111.1%
- CN1[C@@H]2CC[C@H]1C[C@@H](OC(=O)c1c[nH]c3ccccc13)C2 [Tropisetron] — lower, 115.5%
- CO[C@H]1/C=C/O[C@@]2(C)Oc3c(C)c(O)c4c(O)c(c(/C=N/N5CCN(C6CCCC6)CC5)c(O)c4c3C2=O)NC(=O)/C(C)=C\C=C\[C@H](C)[C@H](O)[C@@H](C)[C@@H](O)[C@@H](C)[C@H](OC(C)=O)[C@@H]1C [Rifapentine] — lower, 69.07%
- O=C(/C=C/C=C/c1ccc2c(c1)OCO2)N1CCCCC1 [Piperine] — lower, 104.9%
- COc1cc(NS(=O)(=O)c2ccc(N)cc2)nc(OC)n1 [Sulphadimethoxine] — lower, 86.06%
- Cc1cccc(C)c1NC(=O)CN1CCCC1=O [Nefiracetam] — higher, 192.8%
- N#Cc1ccc(C(c2ccc(C#N)cc2)n2cncn2)cc1 [Letrozole] — lower, 82.09%
- CC(C(=O)O)c1cccc(Oc2ccccc2)c1 (centres unmarked) [Fenoprofen Calcium] — lower, 99.58%
- c1ccc2[nH]c(-c3cscn3)nc2c1 [Thiabendazole] — lower, 70.34%
- CC(=O)Oc1cccc2c1C(=O)c1c(OC(C)=O)cc(C(=O)O)cc1C2=O [Diacerein] — lower, 73.94%
- C[C@H]1O[C@@H](O[C@H]2[C@@H](O)C[C@H](O[C@H]3[C@@H](O)C[C@H](O[C@H]4CC[C@@]5(C)[C@H](CC[C@@H]6[C@@H]5C[C@@H](O)[C@]5(C)[C@@H](C7=CC(=O)OC7)CC[C@]65O)C4)O[C@@H]3C)O[C@@H]2C)C[C@H](O)[C@@H]1O [Digoxin] — lower, 5.758%
- Cc1cccc([C@H](C)c2cnc[nH]2)c1C [Dexmedetomidine HCl (Precedex)] — lower, 113.8%
- Cc1c(Nc2ncccc2C(=O)O)cccc1C(F)(F)F [Flunixin Meglumin] — higher, 128.5%
- CC(C)(Oc1ccc(Cl)cc1)C(=O)O [Clofibric Acid] — lower, 90.303%
- CC1(COc2ccc3c(c2)ncn3-c2ccc3cccc(N4CCC(N)CC4)c3n2)COC1 [Crenolanib (CP-868596)] — lower, 11.17%
- CCS(=O)(=O)N1CCN(c2ccc(Nc3ncc(C(N)=O)c(NC4CC4)n3)cc2)CC1 [Cerdulatinib (PRT062070, PRT2070)] — lower, 36.75%
- O=C1CCc2cc(OCCCCc3nnnn3C3CCCCC3)ccc2N1 [Cilostazol] — lower, 80.53%
- CC(C)Oc1ccc(-c2nc(-c3cccc4c3CC[C@@H]4NCCO)no2)cc1C#N [Ozanimod (RPC1063)] — lower, 47.01%
- CC(CN1c2ccccc2Sc2ccccc21)N(C)C (centres unmarked) [Promethazine HCl] — lower, 62.12%
- C[C@]12CCC(=O)C(O)=C1CC[C@@H]1[C@@H]2CC[C@]2(C)C(=O)CC[C@@H]12 [Formestane] — lower, 110.8%
- CO[C@H]1O[C@@H]2O[C@@]3(C)CC[C@H]4[C@H](C)CC[C@@H]([C@H]1C)[C@@]24OO3 [Artemether] — higher, 126.1%
- C#Cc1cccc(Nc2ncnc3cc(OCCOC)c(OCCOC)cc23)c1 [Erlotinib] — lower, 79.06%
- CCOC(=O)[C@H](CCc1ccccc1)N[C@@H](C)C(=O)N1[C@H](C(=O)O)C[C@@H]2CCC[C@@H]21 [Ramipril] — lower, 75.42%
- Cc1cncc(CN2CCC(=C3c4ccc(Cl)cc4CCc4cccnc43)CC2)c1 [Rupatadine Fumarate] — lower, 83.98%
- N#C[C@@H]1CCCN1C(=O)CNC12CC3CC(CC(O)(C3)C1)C2 [Vildagliptin (LAF-237)] — lower, 108.7%
- CC(C)(C)C(=O)C(Oc1ccc(Cl)cc1)n1ccnc1 (centres unmarked) [Climbazole] — lower, 83.94%
- CCCCc1nc(Cl)c(CO)n1Cc1ccc(-c2ccccc2-c2nn[nH]n2)cc1 [Losartan Potassium (DuP 753)] — lower, 88.32%
- CN1CCC[C@@H]1CCO[C@](C)(c1ccccc1)c1ccc(Cl)cc1 [Clemastine Fumarate] — lower, 16.95%

same assay, conditions: ht29 cells, 72 h, 10 µM

With `C[C@]12Cc3c[nH]nc3C[C@@H]1CC[C@@H]1[C@@H]2CC[C@@]2(C)[C@H]1CC[C@]2(C)O` [Stanozolol] the “Relative cell viability (%)” value was 83.05%.
